From patent US8796245B2 (TetraPhase Pharmaceuticals, Inc., priority 2008, dated 2014)
In brackets after ≈: the same amount, converted by molar mass.

Tests used:
[1] = test system: S. aureus SA161, a tetracycline-resistant strain; assay: Tet-R sepsis study, mouse systemic infection model; type: in vivo; conditions: mg/kg required to protect 50% of mice in septicemia model with tetracycline-resistant S. aureus strain
Procedure: (§1) Compounds of the present invention were evaluated for efficacy in a mouse systemic infection model against a susceptible S. aureus isolate, ATCC 13709. Mice were infected via intraperitoneal injection with a bacterial load that would result in 0% survival within 48 hours after infection. Mice received the test compounds 60 minutes post infection via intravenous injection. […] Survival was assessed over a 48 hour period. Percent survival was calculated and PD50 values determined using Probit analysis.
The protocol for tetracycline-resistance sepsis study was similar to the protocol for EV50 IV study described above except the infection model used S. aureus SA161, a tetracycline-resistant strain.

[2] = test system: S. aureus ATCC 13709; assay: Thigh burden, neutropenic mouse thigh infection; type: in vivo; conditions: maximum log10 reduction in bacteria compared to untreated control, achieved at tested doses; neutropenic mice, IV
Procedure: Female CD-1 mice were pre-treated with cyclophosphamide to render the mice neutropenic. Mice were infected with S. aureus ATCC 13709 via injection into the right thigh muscle of 0.1 ml per mouse. One and a half hours post infection mice were treated IV with test compounds in doses ranging from 0.3 to 30 mg/kg or 0.3 to 20 mg/kg. Four mice were treated with each drug concentration. Twenty-four hours post treatment, mice were euthanized by CO2 inhalation. The right thighs of the mice were aseptically removed, weighed, homogenized, serially diluted, and plated on TSA medium. The plates were incubated overnight at 37° C. in 5% CO2. Colony forming units per gram of thigh was calculated by enumerating the plated colonies then adjusting for serial dilutions and the weight of the thigh.

[3] = Metabolic stability, pooled human microsome assay; type: in vitro ADME; conditions: % compound remaining after 60 min, 37° C. incubation with human liver microsomes
Procedure: A stock solution of the test compounds were prepared by dissolving the compound in DMSO to a final concentration of 1.0 mg/mL. The analytes and internal standard were diluted and infused into the LC/MS system to determine optimal ionization, polarity and MS/MS fragmentation for selection of specific MRM (multiple reaction monitoring) transitions. Generic chromatographic conditions were developed with a less than 5 minute cycle time. Pooled human microsome assays were conducted at 0.2 mg/mL protein with an NADPH generating cofactor system (1.3 mM NADP+, 3.3 mM glucose-6-phosphate, 0.4 U/mL glucose-6-phosphate dehydrogenase, and 3.3 mM magnesium chloride). Test compounds were diluted from DMSO stocks to 1 μM reaction concentrations. Time points were removed at 0 and 60 minutes. After a protein crash with acetonitrile, samples are analyzed by LC/MS/MS. Peak areas are compared to the time 0 sample, and the percent analyte remaining is calculated. A reaction containing no cofactor was used to control for analyte loss due to non-specific binding, thermal degradation and solubility.

[4] = test system: S. aureus isolate, ATCC 13709; assay: ED50 IV study, mouse systemic infection model; type: in vivo; conditions: Staphylococcus aureus, ATCC13709, mg/kg required to protect 50% of mice in septicemia model with S. aureus Smith strain, 60 minutes post infection, 48 hour survival
Procedure: as §1

[5] = test system: E. coli ATCC 25922; assay: GN sepsis study, mouse systemic infection model; type: in vivo; conditions: mg/kg required to protect 50% of mice in septicemia model with E. coli strain
Procedure: as §1, with “analysis. The protocol for GN sepsis study was similar to the protocol for EV50 IV study described above except the infection model used E. coli ATCC 25922.” for “analysis.”

[6] = test system: clinical isolates of E. coli; assay: EC MIC90; type: cell-based; conditions: Escherichia coli; inhibit 90% of E. coli clinical isolates (n = 20); read-out: EC MIC 90
Procedure: (§2) Twenty randomly selected clinical isolates of S. aureus were used to determine the minimal inhibitory concentration (MIC) of test compounds for 90% of the isolates (MIC90). MICs were performed by microtiter broth dilution in a 96-well format according to Clinical Laboratory Standards Institute (CLSI) guidelines, as described above. Twenty randomly selected clinical isolates of E. coli were used to determine the MIC90 as described above.

[7] = Protein binding in human plasma (RED devices); type: in vitro ADME; conditions: % Protein binding in human plasma with compound at 10 uM
Procedure: Test compounds were prepared as 1.0 mg/mL stock solutions in DMSO. The analytes and internal standard were diluted and infused into the LC/MS system to determine optimal ionization, polarity and MS/MS fragmentation for selection of specific MRM (multiple reaction monitoring) transitions. Generic chromatographic conditions were developed with a less than 5 minute cycle time.
[…] The time point was removed at the end of the incubation period. After a protein crash with acetonitrile, the samples were analyzed by LC/MS/MS. Peak areas for the buffer (receiver) and sample (donor) chambers were compared and the protein bound fraction is calculated. Analysis was conducted in duplicate.

[8] = test system: clinical isolates of S. aureus; assay: SA MIC90; type: cell-based; conditions: Staphylococcus aureus; inhibit 90% of S. aureus clinical isolates (n = 20); read-out: SA MIC 90
Procedure: Twenty randomly selected clinical isolates of S. aureus were used to determine the minimal inhibitory concentration (MIC) of test compounds for 90% of the isolates (MIC90). MICs were performed by microtiter broth dilution in a 96-well format according to Clinical Laboratory Standards Institute (CLSI) guidelines, as described above. Viable counts were determined by 10-fold serial dilution. Dilutions were prepared in sterile 0.9% NaCl. Ten microliters of the inoculum and of each of 5 dilutions were plated onto blood or Mueller Hinton agar plates, incubated overnight at 37° C. with 5% CO2, and counted.

[9] = test system: tetracycline-resistant S. aureus; assay: TetR MIC90; type: cell-based; conditions: Staphylococcus aureus; inhibit 90% of tetracycline-resistant S. aureus (n = 10); read-out: TetR MIC 90
Procedure: as §2, with “above.” for “above. Twenty randomly selected clinical isolates of E. coli were used to determine the MIC90 as described above.”

Compound | TetR sepsis [1] [mg/kg] | Thigh Burden [2] [log10 decrease] | Meta Stab % [3] [%] | ED50 [4] [mg/kg] | GN sepsis [5] [mg/kg] | MIC90 [6] [µg/mL] | Prot Bind % [7] [%] | MIC90 [8] [µg/mL] | MIC90 [9] [µg/mL]
CC(C)CNCC(=O)Nc1cc(F)c2c(c1O)C(=O)C1=C(O)[C@]3(O)C(=O)C(C(N)=O)=C(O)[C@@H](N(C)C)[C@@H]3C[C@@H]1C2 [drawing 215] | 3.5 | 5.01 | 72 | 0.55 | 14.3 | 1 (≈ 1.78 µM) | 95.6 | 0.03 (≈ 0.0535 µM) | 4 (≈ 7.14 µM)
CN(C)CC(=O)Nc1cc(F)c2c(c1O)C(=O)C1=C(O)[C@]3(O)C(=O)C(C(N)=O)=C(O)[C@@H](N(C)C)[C@@H]3C[C@@H]1C2 [drawing 220] | 0.62 | 4.12 | 109 | 0.073 | 4.3 | 4 (≈ 7.51 µM) | 93.6 | 0.06 (≈ 0.113 µM) | 4 (≈ 7.51 µM)
CN(C)[C@@H]1C(O)=C(C(N)=O)C(=O)[C@@]2(O)C(O)=C3C(=O)c4c(O)c(NC(=O)CN5CCC5)cc(F)c4C[C@H]3C[C@@H]12 [drawing 216] | – | – | 85 | 0.07 | – | 0.5 (≈ 0.918 µM) | 87.1 | 0.03 (≈ 0.0551 µM) | 4 (≈ 7.35 µM)
CC(C)NCC(=O)Nc1cc(F)c2c(c1O)C(=O)C1=C(O)[C@]3(O)C(=O)C(C(N)=O)=C(O)[C@@H](N(C)C)[C@@H]3C[C@@H]1C2 [drawing 219] | – | – | 96 | 0.3 | – | 1 (≈ 1.83 µM) | 96.9 | 0.06 (≈ 0.11 µM) | 2 (≈ 3.66 µM)
CN(C)[C@@H]1C(O)=C(C(N)=O)C(=O)[C@@]2(O)C(O)=C3C(=O)c4c(O)c(NC(=O)CN5CCCC5)cc(F)c4C[C@H]3C[C@@H]12 [drawing 217] | 1 | 5.24 | 86 | 0.3 | 4.36 | 0.5 (≈ 0.895 µM) | 79.4 | 0.03 (≈ 0.0537 µM) | 2 (≈ 3.58 µM)
CN(C)c1cc(NC(=O)CNC(C)(C)C)c(O)c2c1C[C@H]1C[C@H]3[C@H](N(C)C)C(O)=C(C(N)=O)C(=O)[C@@]3(O)C(O)=C1C2=O | 0.55 | 4.89 | 55 | 0.97 | 2.1 | 0.5 (≈ 0.854 µM) | 69.1 | 0.06 (≈ 0.102 µM) | 1 (≈ 1.71 µM)
CN(C)[C@@H]1C(O)=C(C(N)=O)C(=O)[C@@]2(O)C(O)=C3C(=O)c4c(O)c(NC(=O)CNCC5CC5)cc(F)c4C[C@H]3C[C@@H]12 [drawing 218] | – | – | 65 | 0.55 | – | 2 (≈ 3.58 µM) | 87.9 | 0.03 (≈ 0.0537 µM) | 8 (≈ 14.3 µM)
CN(C)[C@@H]1C(O)=C(C(N)=O)C(=O)[C@@]2(O)C(O)=C3C(=O)c4c(O)c(NC(=O)CNC(C)(C)C)cc(F)c4C[C@H]3C[C@@H]12 [drawing 214] | 0.4 | 4.41 | 104 | 0.3 | 6.2 | 0.5 (≈ 0.892 µM) | 90 | 0.03 (≈ 0.0535 µM) | 2 (≈ 3.57 µM)
